Where two headings read alike, the source gives them in different places. Where a SMILES comes first, the peptide text is derived from it. [ ]: non-standard residue; d: D form. The star is where a group is joined. Propanoyl(3-maleimido) = O=C1C=CC(=O)N1CCC(=O)*
Key:
[1] = Pharmacokinetic studies in male Sprague-Dawley rats (plasma RIA); type: in vivo, rat
Experimental: Pharmacokinetic studies were carried out on the compounds of Examples 5 and 6. Each compound was injected subcutaneously (1 μmol/kg) or intravenously (100 nmol/kg) to male Sprague-Dawley rats. Serial blood samples were taken at pre-dose, 5, 30 and 60 minutes and 2, 4, 8, 24, 48, 72 and 96 hours post-agent administration. Plasma were harvested and frozen until analysis by radioimmunoassay (RIA). A commercial polyclonal antibody raised against human native GRF (1–29) was used to detect the compounds. The assay sensitivity was 300 to 10 000 pM. Consequently, some samples had to be diluted for analysis. The results of the pharmacokinetic profiles appear in FIG. 9. As it can be seen, the compound of Example 5, i.e., the native peptide, disappears very rapidly. In fact, the compound of Example 5, whether administered subcutaneously or intrasvenously, could not be detected after 60 minutes post administration. This is consistent with results in Sprague-Dawley rats reported in the literature for GRF (1–29) and other analogues thereof, regarding the terminal half-life thereof and the percentage of bioavailability (SC/IV) (see for example Peptides, 9:207–209, and J. Endocr., 107:R5–R8.

[2] = in vivo; cited from earlier work

| Compound | λ ([1]; intravenous administration, 100 nmol/kg, male Sprague-Dawley rats) | half-life ([1]; rat, in vivo, sc, 1 umol/kg, subcutaneous administration, 1 μmol/kg, male Sprague-Dawley rats, read-out: Terminal half-life (converted)) [h] | time post administration at which compound remains detectable in plasma ([1]; subcutaneous (1 μmol/kg) or intravenous (100 nmol/kg), plasma RIA, FIG. 9) [h] | λ ([1]; subcutaneous administration, 1 μmol/kg, male Sprague-Dawley rats) | half-life [2] [h] |
| --- | --- | --- | --- | --- | --- |
| CC[C@H](C)[C@H](NC(=O)[C@H](C)NC(=O)[C@H](CC(=O)O)NC(=O)[C@@H](C)NC(=O)[C@@H](N)Cc1ccc(O)cc1)C(=O)N[C@@H](Cc1ccccc1)C(=O)N[C@H](C(=O)N[C@@H](CCC(N)=O)C(=O)N[C@@H](CO)C(=O)N[C@@H](Cc1ccc(O)cc1)C(=O)N[C@@H](CCCNC(=N)N)C(=O)N[C@@H](CCCCN)C(=O)N[C@H](C(=O)N[C@@H](CC(C)C)C(=O)N[C@@H](C)C(=O)N[C@@H](CCC(N)=O)C(=O)N[C@@H](CC(C)C)C(=O)N[C@@H](CO)C(=O)N[C@@H](C)C(=O)N[C@@H](CCCNC(=N)N)C(=O)N[C@@H](CCCCN)C(=O)N[C@@H](CC(C)C)C(=O)N[C@@H](CC(C)C)C(=O)N[C@@H](CCC(N)=O)C(=O)N[C@@H](CC(=O)O)C(=O)N[C@H](C(=O)N[C@@H](CC(C)C)C(=O)N[C@@H](CO)C(=O)N[C@@H](CCCNC(=N)N)C(=O)N[C@@H](CCCCNC(=O)CCN1C(=O)C=CC1=O)C(N)=O)[C@@H](C)CC)C(C)C)[C@@H](C)O [Example 6] (H-Y[dA]DAIFTQSYRKVLAQLSARKLLQDILSRK(Propanoyl(3-maleimido))-NH2) | 0.037 | 25.8 ± 2.1 | ≥ 96 | 0.027 | – |
| GRF 1–29: N-terminal 1–29 fragment of growth hormone releasing factor; commercial GRF(1–29) from Polypeptide Laboratories used as comparator | – | – | – | – | 0.167 to 0.217 |

Source: US7268113B2, “Long lasting growth hormone releasing factor derivatives” (ConjuChem Biotechnologies Inc., priority 2002, dated 2007)
